Earlier results on one compound are cited in patent publication US20130281457A1, “PHARMACEUTICAL COMPOSITIONS COMPRISING 5-CHLORO-N-(-METHYL)-2-THIOPHENCARBOXAMID” (Ratiopharm GmbH, priority 2008, published 2013).

SMILES strings stand for the structures.

As for `O=C(NC[C@H]1CN(c2ccc(N3CCOCC3=O)cc2)C(=O)O1)c1ccc(Cl)s1` [Compound I, 5-Chloro-N-({(5S)-2-oxo-3-[4-(3-oxo-4-morpholinyl)-phenyl]-1,3-oxazolidin-5-yl}-methyl)-2-thiophencarboxamid], the solubility in water entry is “only limited solubility in water”.
